{"source": "paper PMC10446491", "about": "(Frontiers in Immunology, 2023)"}
{"tested_on": "lysis of EA", "assay": "CH50 test of C5 proteins in 1.5% C5-depleted human sera with EA", "format": "cell-based", "details": "1.5% C5-depleted human sera supplemented with C5 protein", "method": "Recombinant human C5 R885 variants (rhC5 R885C and rhC5 R885H) were prepared in-house ( Supplementary Material ). Their activities on complement activation were examined by the CH50 test using 1.5% C5-depleted human sera supplemented with C5 R885 variants. […] Other procedures and data analysis are described in Section 2.3.\nSupplementary Figure 2. Determination of CH50 of the hemolysis by C5 from different sources. Wild type C5 purified from human sera (hC5 compTech) (Complement Technologies), recombinant C5 wild type (rhC5 WT), recombinant C5 variant R885C (rhC5 R885C), and recombinant C5 variant R885H (rhC5 R885H). Various concentrations of protein C5 were added to 1.5% C5-depleted human sera followed by incubation with EA (0.5×) in GVB++ buffer. All data were from 2 plates (duplicate in each plate).", "units": {"CH50": "nM"}}
{"substance": "C5 wt: Wild-type human C5, purified from human sera or recombinant (rhC5 wt)", "CH50": "0.2 to 0.3"}
{"substance": "rhC5 R885C: Recombinant human C5 variant with single mutation R885C, prepared in-house", "CH50": 5.2}
{"substance": "rhC5 R885H: Recombinant human C5 variant with single mutation R885H, prepared in-house", "CH50": 1.1}
